Results reported in patent US7417156B2, “Orally active, antimalarial, anticancer, artemisinin-derived trioxane dimers” (Johns Hopkins University, priority 2002, dated 2008).
Where two headings read alike, the source gives them in different places.

Assays:
[1] = tested on: HOP-92; experiment: NCI 60 cell line panel screen (SRB); assay type: cell-based, human
[2] = tested on: NCI/ADR-RES; experiment: NCI 60 cell line panel screen (SRB); assay type: cell-based, human
[3] = tested on: HCT-116; experiment: NCI 60 cell line panel screen (SRB); assay type: cell-based, human
[4] = tested on: OVCAR-3; experiment: NCI 60 cell line panel screen (SRB); assay type: cell-based, human
[5] = tested on: SK-MEL-2; experiment: NCI 60 cell line panel screen (SRB); assay type: cell-based, human
[6] = tested on: U251; experiment: NCI 60 cell line panel screen (SRB); assay type: cell-based, human
[7] = tested on: RPMI-8226; experiment: NCI 60 cell line panel screen (SRB); assay type: cell-based, human
[8] = tested on: KM12; experiment: NCI 60 cell line panel screen (SRB); assay type: cell-based, human
[9] = tested on: M14; experiment: NCI 60 cell line panel screen (SRB); assay type: cell-based, human
[10] = tested on: SF-268; experiment: NCI 60 cell line panel screen (SRB); assay type: cell-based, human
[11] = tested on: K-562; experiment: NCI 60 cell line panel screen (SRB); assay type: cell-based, human
[12] = tested on: PC-3; experiment: NCI 60 cell line panel screen (SRB); assay type: cell-based, human
[13] = tested on: COLO 205; experiment: NCI 60 cell line panel screen (SRB); assay type: cell-based, human
[14] = tested on: SK-MEL-28; experiment: NCI 60 cell line panel screen (SRB); assay type: cell-based, human
[15] = tested on: chloroquine-sensitive P. falciparum (NF54); experiment: Antimalarial activity in vitro, [3H]hypoxanthine incorporation; assay type: cell-based
[16] = tested on: HL-60(TB); experiment: NCI 60 cell line panel screen (SRB); assay type: cell-based, human
[17] = tested on: CAKI-1; experiment: NCI 60 cell line panel screen (SRB); assay type: cell-based, human
[18] = tested on: CCRF-CEM; experiment: NCI 60 cell line panel screen (SRB); assay type: cell-based, human; conditions: CCRF-CEM (Leukemia)
[19] = tested on: MALME-3M; experiment: NCI 60 cell line panel screen (SRB); assay type: cell-based, human
[20] = tested on: NCI-H23; experiment: NCI 60 cell line panel screen (SRB); assay type: cell-based, human
[21] = tested on: SNB-75; experiment: NCI 60 cell line panel screen (SRB); assay type: cell-based, human
[22] = tested on: MCF7; experiment: NCI 60 cell line panel screen (SRB); assay type: cell-based, human
[23] = tested on: 60 cell line panel; assay type: cell-based
[24] = tested on: HCT-15; experiment: NCI 60 cell line panel screen (SRB); assay type: cell-based, human
[25] = tested on: NCI-H460; experiment: NCI 60 cell line panel screen (SRB); assay type: cell-based, human
[26] = tested on: OVCAR-8; experiment: NCI 60 cell line panel screen (SRB); assay type: cell-based, human
[27] = tested on: RXF 393; experiment: NCI 60 cell line panel screen (SRB); assay type: cell-based, human
[28] = mean value over the 60 cell line panel

Question: What does the source list for `CC1CCC2C(C)C(CC(CO)CC3OC4OC5(C)CCC6C(C)CCC(C3C)C46OO5)OC3OC4(C)CCC1C32OO4` (centres unmarked) [Compound 4, bis-trioxane primary alcohol]?
Answer: Log10LC50 ([1]; HOP-92 (Non-Small Cell Lung Cancer), LC50: PG=−50): −4.22 log10M; Log10TGI50 ([1]; HOP-92 (Non-Small Cell Lung Cancer), TGI: PG=0): −4.65 log10M; Log10GI50 ([1]; Non-Small Cell Lung Cancer, HOP-92): −6.37; Log10GI50 ([2]; Breast Cancer, NCI/ADR-RES): −7.45; Log10LC50 ([2]; NCI/ADR-RES (Breast Cancer), LC50: PG=−50): −4.52 log10M; Log10TGI50 ([2]; NCI/ADR-RES (Breast Cancer), TGI: PG=0): −6.41 log10M; Log10GI50 ([3]; Colon Cancer, HCT-116): <−8.00; Log10LC50 ([3]; HCT-116 (Colon Cancer), LC50: PG=−50): −4.57 log10M; Log10LC50 ([4]; OVCAR-3 (Ovarian Cancer), LC50: PG=−50): −4.42 log10M; Log10TGI50 ([4]; OVCAR-3 (Ovarian Cancer), TGI: PG=0): −4.92 log10M; Log10GI50 ([4]; Ovarian Cancer, OVCAR-3): −7.68; Log10GI50 ([5]; Melanoma, SK-MEL-2): −7.33; Log10LC50 ([5]; SK-MEL2 (Melanoma), LC50: PG=−50): −4.46 log10M; Log10TGI50 ([5]; SK-MEL-2 (Melanoma), TGI: PG=0): −4.92 log10M; Log10GI50 ([6]; CNS Cancer, U251): −7.27; Log10LC50 ([6]; U251 (CNS Cancer), LC50: PG=−50): >−4.00 log10M; Log10TGI50 ([6]; U251 (CNS Cancer), TGI: PG=0): −4.47 log10M; Log10GI50 ([7]; Leukemia, RPMI-8226): <−8.00; Log10LC50 ([7]; RPMI-8226 (Leukemia), LC50: PG=−50): >−4.00 log10M; Log10TGI50 ([7]; RPMI-8226 (Leukemia), TGI: PG=0): −6.91 log10M; Log10GI50 ([8]; Colon Cancer, KM12): <−8.00; Log10LC50 ([8]; KM12 (Colon Cancer), LC50: PG=−50): −4.29 log10M; Log10TGI50 ([8]; KM12 (Colon Cancer), TGI: PG=0): −4.79 log10M; Log10LC50 ([9]; M14 (Melanoma), LC50: PG=−50): −4.14 log10M; Log10TGI50 ([9]; M-14 (Melanoma), TGI: PG=0): −4.68 log10M; Log10GI50 ([9]; Melanoma, M14): −5.87; Log10GI50 ([10]; CNS Cancer, SF-268): −5.40; Log10LC50 ([10]; SF-268 (CNS Cancer), LC50: PG=−50): −4.23 log10M; Log10TGI50 ([10]; SF-268 (CNS Cancer), TGI: PG=0): −4.63 log10M; Log10LC50 ([11]; K-562 (Leukemia), LC50: PG=−50): >−4.00 log10M; Log10TGI50 ([11]; K-562 (Leukemia), TGI: PG=0): >−4.00 log10M; Log10GI50 ([11]; Leukemia, K-562): −7.91; Log10LC50 ([12]; PC-3 (Prostate Cancer), LC50: PG=−50): −4.34 log10M; Log10TGI50 ([12]; PC-3 (Prostate Cancer), TGI: PG=0): −4.89 log10M; Log10GI50 ([12]; Prostate Cancer, PC-3): <−8.00; Log10LC50 ([13]; COLO 205 (Colon Cancer), LC50: PG=−50): −4.50 log10M; Log10TGI50 ([13]; COLO 205 (Colon Cancer), TGI: PG=0): −6.43 log10M; Log10GI50 ([13]; Colon Cancer, COLO 205): <−8.00; Log10GI50 ([14]; Melanoma, SK-MEL-28): −4.95; Log10LC50 ([14]; SK-MEL-28 (Melanoma), LC50: PG=−50): −4.12 log10M; Log10TGI50 ([14]; SK-MEL-28 (Melanoma), TGI: PG=0): −4.54 log10M; IC50 [15]: below one nM; antimalarial potency in vitro relative to artemisinin [15]: 10 times; IC50 ([15]; Table I, NF54 strain, read-out: IC50): 0.87 nM; Log10LC50 ([16]; HL-60(TB) (Leukemia), LC50: PG=−50): −4.13 log10M; Log10TGI50 ([16]; HL-60(TB) (Leukemia), TGI: PG=0): −4.88 log10M; Log10GI50 ([16]; Leukemia, HL-60(TB)): −7.78; Log10LC50 ([17]; CAKI-1 (Renal Cancer), LC50: PG=−50): −4.38 log10M; Log10TGI50 ([17]; CAKI-1 (Renal Cancer), TGI: PG=0): −4.84 log10M; Log10GI50 ([17]; Renal Cancer, CAKI-1): −7.05; Log10LC50 ([18]; LC50: PG=−50): >−4.00 log10M; Log10TGI50 ([18]; TGI: PG=0): −4.66 log10M; Log10LC50 ([19]; MALME-3M (Melanoma), LC50: PG=−50): −4.28 log10M; Log10TGI50 ([19]; MALME-3M (Melanoma), TGI: PG=0): −4.74 log10M; Log10GI50 ([19]; Melanoma, MALME-3M): −7.31; Log10LC50 ([20]; NCI-H23 (Non-Small Cell Lung Cancer), LC50: PG=−50): −4.49 log10M; Log10GI50 ([20]; Non-Small Cell Lung Cancer, NCI-H23): −7.84; Log10GI50 ([21]; CNS Cancer, SNB-75): −4.99; Log10LC50 ([21]; SNB-75 (CNS Cancer), LC50: PG=−50): −4.12 log10M; Log10TGI50 ([21]; SNB-75 (CNS Cancer), TGI: PG=0): −4.55 log10M; Log10GI50 ([22]; Breast Cancer, MCF7): −7.22; Log10LC50 ([22]; MCF7 (Breast Cancer), LC50: PG=−50): −4.03 log10M; Log10TGI50 ([22]; MCF7 (Breast Cancer), TGI: PG=0): −4.67 log10M; Log10GI50 Delta [23]: 1.13; Log10GI50 Range [23]: 3.20; Log10LC50 Delta ([23]; 60 cell line panel): 0.88; Log10LC50 Range ([23]; 60 cell line panel): 1.14; Log10TGI50 Delta ([23]; 60 cell line panel): 2.31; Log10TGI50 Range ([23]; 60 cell line panel): 3.18; growth inhibition and cytotoxicity in words ([23]; human cancer cell lines in general): strongly inhibitory but not cytotoxic; growth inhibition in words ([23]; leukemia cell line RPM 1-8226, melanoma cell line SK-MEL-5, renal cancer cell line ACHN): selectively and strongly inhibitory; Log10GI50 MG MID ([23]; mean over panel): −6.87; Log10LC50 MG MID [23, 28]: −4.26 log10M; Log10TGI50 MG MID [23, 28]: −4.87 log10M; Log10GI50 ([24]; Colon Cancer, HCT-15): <−8.00; Log10LC50 ([24]; HCT-15 (Colon Cancer), LC50: PG=−50): −4.06 log10M; Log10TGI50 ([24]; HCT-15 (Colon Cancer), TGI: PG=0): −4.78 log10M; Log10LC50 ([25]; NCI-H460 (Non-Small Cell Lung Cancer), LC50: PG=−50): −4.19 log10M; Log10TGI50 ([25]; NCI-H460 (Non-Small Cell Lung Cancer), TGI: PG=0): −4.71 log10M; Log10GI50 ([25]; Non-Small Cell Lung Cancer, NCI-H460): −7.35; Log10LC50 ([26]; OVCAR-8 (Ovarian Cancer), LC50: PG=−50): −4.03 log10M; Log10TGI50 ([26]; OVCAR-8 (Ovarian Cancer), TGI: PG=0): −4.69 log10M; Log10GI50 ([26]; Ovarian Cancer, OVCAR-8): −7.33; Log10LC50 ([27]; RXF 393 (Renal Cancer), LC50: PG=−50): −4.01 log10M; Log10TGI50 ([27]; RXF 393 (Renal Cancer), TGI: PG=0): −4.41 log10M; Log10GI50 ([27]; Renal Cancer, RXF 393): −4.80
